Experimental data: patent US6461997B1, “Triazole sulfones having herbicidal activity” (Monsanto Technology LLC, priority 1999, dated 2002)

How the values were obtained:
[1] = system: SORHA (johnsongrass (seedling)); assay: Pre-plant incorporated (PPI) herbicidal activity, warm season; type: in vivo, Sorghum halepense; conditions: for Percent inhibition SORHA: PPI application; for PPI activity GR80, SORHA: pre-plant incorporated, lowest tested rate with 80% or greater inhibition, about 14 days
Protocol: (§1) In another set of tests, the pre-plant incorporated (PPI) activity of compounds of this invention was evaluated on the same species as for the pre-emergence tests described above. In the PPI tests the following procedure, designed to simulate PPI application, was used.
(§2) A pre-prepared topsoil mixture (described above) was placed in a pot and compacted to a depth of 1.0 to 1.25 cm from the top of the pot. Seeds of each of several monocotyledonous and dicotyledonous annual plant species were placed on top of the soil. A sufficient quantity of soil to cover the seeds and level fill the pot was weighed into an open container. A known amount of the test compound was dissolved or suspended in an organic solvent and applied by spraying to this cover soil. The cover soil was thoroughly mixed to distribute the test compound throughout the cover soil, and was then applied as a cover layer over the seeds. Untreated soil was used as a cover layer for control pots. After treatment the plants were placed in a greenhouse where they received 0.64 cm of overhead irrigation. All subsequent watering consisted of a light overhead mist and/or subirrigation as needed for germination and growth. Tables 9 and 10 below relate to warm season plant species which were placed after pre-emergence treatment in a greenhouse with a 30/21° C. day/night temperature regime. Tables 11 and 12 below relates to cool season plant species placed after pre-emergence treatment in a greenhouse or growth chamber with an 18/13° C. day/night temperature regime. Only the compounds of Examples 1, 6, 8, 11, 13 and 15-20 were included in PPI tests.
(§3) Approximately 14 days after planting and treating, the plants were observed and herbicidal efficacy recorded as percent inhibition by comparison with untreated plants.

[2] = system: ALOMY (blackgrass); assay: Pre-emergence herbicidal activity, cool season; type: in vivo, Alopecurus myosuroides; conditions: GR80 = lowest tested rate (300, 100, 30, 10 g/ha) with 80% or greater inhibition; approx. 14 days after treating; 18/13° C.
Outline: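 Activity is expressed as the rate giving 80% inhibition, with 300, 100, 30 and 10 g/ha typically tested. An asterisk marks activity short of 80% at the top rate. Warm-season grasses were held at 30/21 °C; cool-season blackgrass and wild buckwheat at 18/13 °C; scoring at about 14 days.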

[3] = system: DIGSA (large crabgrass); assay: Pre-plant incorporated (PPI) herbicidal activity, warm season; type: in vivo, Digitaria sanguinalis; conditions: for Percent inhibition DIGSA: PPI application; for PPI activity GR80, DIGSA: pre-plant incorporated, lowest tested rate with 80% or greater inhibition, about 14 days
Protocol: as §1, §2, §3

[4] = system: VERPE (creeping speedwell); assay: Pre-emergence herbicidal activity, cool season; type: in vivo, Veronica persicaria; conditions: lowest tested rate with 80% or greater inhibition; rates 300, 100, 30, 10 g/ha; about 14 days
Outline: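 GR80 values derive from percent inhibition relative to untreated plants, read roughly 14 days after sowing and pre-emergence soil-surface treatment (compound in 50:50 acetone/water; rates typically 10, 30, 100, 300 g/ha). Warm-season weeds grew at 30/21° C day/night, cool-season ones at 18/13° C; an asterisk marks activity without reaching 80% at the highest rate.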

[5] = system: LOLMG (annual ryegrass); assay: Pre-plant incorporated (PPI) herbicidal activity, cool season; type: in vivo, Lolium multiflorum; conditions: for Percent inhibition LOLMG: weed, PPI application; for PPI activity GR80, LOLMG: pre-plant incorporated, lowest tested rate with 80% or greater inhibition, about 14 days
Protocol: as §1, §2, §3

[6] = system: soybean (GLYMX); assay: Selectivity test, PPI, warm season crop; type: in vivo, Glycine max; conditions: PPI application
Protocol: as §2, §3
Additional pre-emergence and PPI tests were conducted by the procedures described above, on warm and cool season weed species in the presence of crop species, to assess herbicidal selectivity. Crop species included in warm season tests were corn (Zea mays, ZEAMX), rice (Oryza sativa, ORYSA) and soybean (Glycine max, GLYMX). Crop species included in cool season tests were wheat (Triticum aestivum, TRZAW), barley (Hordeunm vulgare, HORVX) and oilseed rape (Brassica napus, BRSNS).
Tables 15 and 16 relate to pre-emergence and PPI tests respectively on warm season species. Table 17 relates to pre-emergence tests on cool season species.

| Compound | Percent inhibition SORHA ([1]; 10 g/ha) | Percent inhibition SORHA ([1]; 30 g/ha) | Percent inhibition SORHA ([1]; 100 g/ha) | Percent inhibition SORHA ([1]; 300 g/ha) | Percent inhibition SORHA ([1]; 900 g/ha) | Pre-emergence activity (GR80) ALOMY [2] | Percent inhibition DIGSA ([3]; 10 g/ha) | Percent inhibition DIGSA ([3]; 30 g/ha) | Percent inhibition DIGSA ([3]; 100 g/ha) | Percent inhibition DIGSA ([3]; 300 g/ha) | Percent inhibition DIGSA ([3]; 900 g/ha) | Pre-emergence activity GR80, VERPE [4] | Percent inhibition LOLMG ([5]; 10 g/ha) | Percent inhibition LOLMG ([5]; 30 g/ha) | Percent inhibition LOLMG ([5]; 100 g/ha) | Percent inhibition LOLMG ([5]; 300 g/ha) | Percent inhibition LOLMG ([5]; 900 g/ha) | Percent inhibition GLYMX ([6]; 10 g/ha) | Percent inhibition GLYMX ([6]; 30 g/ha) | Percent inhibition GLYMX ([6]; 100 g/ha) | also measured |
| --- | --- | --- | --- | --- | --- | --- | --- | --- | --- | --- | --- | --- | --- | --- | --- | --- | --- | --- | --- | --- | --- |
| CCN(CC)C(=O)n1cnc(S(=O)(=O)C(F)(F)SCc2ccccc2)n1 [Example 10] | 0% | 0% | 50% | 100% | 100% | 300 g/ha | 0% | 0% | 90% | 85% | 100% | 100 g/ha | 0% | 0% | 65% | 100% | 99% | 0% | 0% | 0% | Percent inhibition GLYMX ([6]; 300 g/ha): 10%; Percent inhibition GLYMX ([6]; 900 g/ha): 70% |
| CCN(CC)C(=O)n1cnc(S(=O)(=O)C(F)(F)SCC(=O)OC)n1 [Example 11] | 0% | 0% | 30% | 80% | 100% | 300 g/ha | 0% | 0% | 70% | 90% | 100% | 100 g/ha | 20% | 40% | 70% | 99% | 95% | 0% | 0% | 0% | PPI activity GR80, SORHA [1]: 300 g/ha; PPI activity GR80, DIGSA [3]: 300 g/ha; PPI activity GR80, LOLMG [5]: [empty]; Percent inhibition GLYMX ([6]; 300 g/ha): 10%; Percent inhibition GLYMX ([6]; 900 g/ha): 30% |
| CCN(CC)C(=O)n1cnc(S(=O)(=O)C(F)(F)SCCOC)n1 [Example 13] | 30% | 100% | 90% | 100% | 100% | 300 g/ha | 0% | 75% | 100% | 100% | 100% | 300 g/ha | 20% | 60% | 70% | 100% | 100% | 0% | 0% | 0% | PPI activity GR80, SORHA [1]: 100 g/ha; PPI activity GR80, DIGSA [3]: 30 g/ha; PPI activity GR80, LOLMG [5]: * (activity observed, at least at highest rate, but <80% inhibition); Percent inhibition GLYMX ([6]; 300 g/ha): 30%; Percent inhibition GLYMX ([6]; 900 g/ha): 70% |
